Test results: article PMC3213642 (The Biochemical journal, 2011)

B1: N-terminal His-tagged FlaI^E336A (Walker B mutant) (enzyme, S. acidocaldarius DSM639, UniProt Q4J9L0 1-513, looked up)
chain: MSFVEDYLTKLQERPTIIENPNILKGSKIFNAIYRVDDFVYIHIQSIKSEDGYNQYNVIEPPRPTHDEMEEIEEKFALSIGDKEPPEDTKEKEKLIRSILDKILLRMRLSVPKEYVIYHFIRDKLYTGSLEPLIRDPYIEDISIPGLGHVYIVHKVFGPMRTSIKFENYEELDNLIVSLSEKSYRPVSHNRPVVDASLPDGSRVNFVYGVDISRRGSNLTVRKFSRVPTSITQLIMFGTLSSMMAAYIWTMLDEGMNLFVCGETASGKTTTLNAITAFIPPNLKIVTIEDTPELTVPHSNWVAEVTRETGGEGTIKLFDLLKAALRQRPNYILVGAIRDKEGNVAFQAMQTGHSVMATFHAANITTLIQRLTGYPIEVPKSYINNLNIALFQTALYDKKGNLIRRVVEVDEIIDIDPVTNDVVYIPAFTYDSVQDKMLFAGKGSSYLIENKIAVKRGIDRRNIGLLYDELQMRSRFLNLLVEKKIFNYYDVWDYILRARQMGLEEAIKYVSNI

What was measured:
[1] = biological target: FlaI (Sulfolobus acidocaldarius, UniProt Q4J9L0, E336A); assay: size-exclusion chromatography and SAXS, hexamerization; assay type: binding; details: SAXS: pH 7.0, 200 mM NaCl, 1 mM ATP, 2.5 mM MgCl2, 20 °C
[2] = biological target: the molecule itself; assay: SAXS

Row | Molecule | size-exclusion chromatography and SAXS, hexamerization [1] | stoichiometry N [2]
1 | Nc1ncnc2c1ncn2[C@@H]1O[C@H](COP(=O)(O)OP(=O)(O)OP(=O)(O)O)[C@@H](O)[C@H]1O [ATP] | FlaI^E336A with ATP clearly forms a hexameric ring similar to the one determined for GspE | –
2 | B1 | – | 6
